Read-outs that look alike come from different tables or passages of the source.
Columns and labels:
[1] = tested on: mouse FL5.12 cells transfected with Bcl-XL; test: FL5.12 cellular assay (cell viability, CellTiter-Glo); type: cell-based; details: FL5.12 cells transfected with Bcl-XL, IL-3-depleted, 3% FBS assay media, 24 hours, CellTiter-Glo, read-out: FL5.12 Bcl-xL, - IL3, EC 50;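 also: each EC50 determination derived from duplicate measurements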
GST-Bcl-xL = GST-Bcl-xL (Homo sapiens, UniProt Q07817); details: read-out: TR-FRET binding Bcl-xL Ki
GST-Bcl-xL, sequence (Q07817 whole entry): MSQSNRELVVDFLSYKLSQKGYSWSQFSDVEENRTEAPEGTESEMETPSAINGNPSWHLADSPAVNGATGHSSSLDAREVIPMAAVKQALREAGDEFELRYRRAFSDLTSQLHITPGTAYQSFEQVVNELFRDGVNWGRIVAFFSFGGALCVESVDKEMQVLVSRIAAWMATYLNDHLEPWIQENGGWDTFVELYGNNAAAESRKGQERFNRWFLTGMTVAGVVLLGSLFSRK

SMILES | EC50 [1] [nM] | Ki (GST-Bcl-xL) [nM] | EC50 ([1]; Mus musculus) [nM]
O=C(Nc1nc2ccccc2s1)c1cccc2c1CN(c1ccc(-c3cnn(Cc4cccnc4)c3)c(C(=O)O)n1)CC2 [Example 3, 6-[8-(1,3-benzothiazol-2-ylcarbamoyl)-3,4-dihydroisoquinolin-2(1H)-yl]-3-[1-(pyridin-3-ylmethyl)-1H-pyrazol-4-yl]pyridine-2-carboxylic acid] | > 1000 | 258 | 
CC(c1ccccc1)n1cc(-c2ccc(N3CCc4cccc(C(=O)Nc5nc6ccccc6s5)c4C3)nc2C(=O)O)cn1 (stereo not drawn) [Example 5, 6-[8-(1,3-benzothiazol-2-ylcarbamoyl)-3,4-dihydroisoquinolin-2(1H)-yl]-3-[1-(1-phenylethyl)-1H-pyrazol-4-yl]pyridine-2-carboxylic acid] |  | 19 | 408
COc1ccc2nc(NC(=O)c3cccc4c3CN(c3ccc(-c5cnn(Cc6ccccc6)c5)c(C(=O)O)n3)CC4)sc2c1 [Example 11, 3-(1-benzyl-1H-pyrazol-4-yl)-6-{8-[(6-methoxy-1,3-benzothiazol-2-yl)carbamoyl]-3,4-dihydroisoquinolin-2(1H)-yl}pyridine-2-carboxylic acid] | > 1000 | 180 | 
Cc1nn(Cc2ccccc2)c(C)c1-c1ccc(N2CCc3cccc(C(=O)Nc4nc5ccccc5s4)c3C2)nc1C(=O)O [Example 12, 6-[8-(1,3-benzothiazol-2-ylcarbamoyl)-3,4-dihydroisoquinolin-2(1H)-yl]-3-(1-benzyl-3,5-dimethyl-1H-pyrazol-4-yl)pyridine-2-carboxylic acid] |  | 8 | 51
COc1cccc(Cn2cc(-c3ccc(N4CCc5cccc(C(=O)Nc6nc7ccccc7s6)c5C4)nc3C(=O)O)cn2)c1 [Example 14, 6-[8-(1,3-benzothiazol-2-ylcarbamoyl)-3,4-dihydroisoquinolin-2(1H)-yl]-3-[1-(3-methoxybenzyl)-1H-pyrazol-4-yl]pyridine-2-carboxylic acid] | > 1000 | 12 | 
O=C(Nc1nc2ccccc2s1)c1cccc2c1CN(c1ccc(-c3cnn(Cc4ccc(Cl)cc4)c3)c(C(=O)O)n1)CC2 [Example 15, 6-[8-(1,3-benzothiazol-2-ylcarbamoyl)-3,4-dihydroisoquinolin-2(1H)-yl]-3-[1-(4-chlorobenzyl)-1H-pyrazol-4-yl]pyridine-2-carboxylic acid] | > 1000 | 35 | 
O=C(Nc1nc2ccccc2s1)c1cccc2c1CN(c1ccc(-c3cnn(Cc4cccc(O)c4)c3)c(C(=O)O)n1)CC2 [Example 17, 6-[8-(1,3-benzothiazol-2-ylcarbamoyl)-3,4-dihydroisoquinolin-2(1H)-yl]-3-[1-(3-hydroxybenzyl)-1H-pyrazol-4-yl]pyridine-2-carboxylic acid] | > 1000 | 31 | 
CN(C)CCOc1cccc(Cn2cc(-c3ccc(N4CCc5cccc(C(=O)Nc6nc7ccccc7s6)c5C4)nc3C(=O)O)cn2)c1 [Example 18, 6-[8-(1,3-benzothiazol-2-ylcarbamoyl)-3,4-dihydroisoquinolin-2(1H)-yl]-3-(1-{3-[2-(dimethylamino)ethoxy]benzyl}-1H-pyrazol-4-yl)pyridine-2-carboxylic acid] |  | 38 | 621
Cc1nn(Cc2ccccc2)cc1-c1ccc(N2CCc3cccc(C(=O)Nc4nc5ccccc5s4)c3C2)nc1C(=O)O [Example 19, 6-[8-(1,3-benzothiazol-2-ylcarbamoyl)-3,4-dihydroisoquinolin-2(1H)-yl]-3-(1-benzyl-3-methyl-1H-pyrazol-4-yl)pyridine-2-carboxylic acid] |  | 28 | 398
O=C(Nc1nc2cccc(Cl)c2s1)c1cccc2c1CN(c1ccc(-c3cnn(Cc4ccccc4)c3)c(C(=O)O)n1)CC2 [Example 21, 3-(1-benzyl-1H-pyrazol-4-yl)-6-{8-[(7-chloro-1,3-benzothiazol-2-yl)carbamoyl]-3,4-dihydroisoquinolin-2(1H)-yl}pyridine-2-carboxylic acid] | > 1000 | 183 | 
O=C(Nc1nc2ccccc2s1)c1cccc2c1CN(c1ccc(-c3cnn(Cc4cccc(N5CCCC5)n4)c3)c(C(=O)O)n1)CC2 [Example 22, 6-[8-(1,3-benzothiazol-2-ylcarbamoyl)-3,4-dihydroisoquinolin-2(1H)-yl]-3-(1-{[6-(pyrrolidin-1-yl)pyridin-2-yl]methyl}-1H-pyrazol-4-yl)pyridine-2-carboxylic acid] |  | 6 | 214
O=C(Nc1nc2ccccc2s1)c1cccc2c1CN(c1ccc(-c3cnn(-c4ccccc4)c3)c(C(=O)O)n1)CC2 [Example 23, 6-[8-(1,3-benzothiazol-2-ylcarbamoyl)-3,4-dihydroisoquinolin-2(1H)-yl]-3-(1-phenyl-1H-pyrazol-4-yl)pyridine-2-carboxylic acid] |  | 182 | > 1000
N#Cc1cccc(Cn2cc(-c3ccc(N4CCc5cccc(C(=O)Nc6nc7ccccc7s6)c5C4)nc3C(=O)O)cn2)c1 [Example 24, 6-[8-(1,3-benzothiazol-2-ylcarbamoyl)-3,4-dihydroisoquinolin-2(1H)-yl]-3-[1-(3-cyanobenzyl)-1H-pyrazol-4-yl]pyridine-2-carboxylic acid] | > 1000 | 64 | 
O=C(Nc1nc2ccccc2s1)c1cccc2c1CN(c1ccc(-c3cnn(Cc4ccccn4)c3)c(C(=O)O)n1)CC2 [Example 26, 6-[8-(1,3-benzothiazol-2-ylcarbamoyl)-3,4-dihydroisoquinolin-2(1H)-yl]-3-[1-(pyridin-2-ylmethyl)-1H-pyrazol-4-yl]pyridine-2-carboxylic acid] | > 1000 | 167 | 
N#Cc1nn(Cc2ccccc2)cc1-c1ccc(N2CCc3cccc(C(=O)Nc4nc5ccccc5s4)c3C2)nc1C(=O)O [Example 27, 6-[8-(1,3-benzothiazol-2-ylcarbamoyl)-3,4-dihydroisoquinolin-2(1H)-yl]-3-(1-benzyl-3-cyano-1H-pyrazol-4-yl)pyridine-2-carboxylic acid] |  | 315 | > 1000
O=C(Nc1nc2ccccc2s1)c1cccc2c1CN(c1ccc(-c3cnn(Cc4ccc5ccccc5c4)c3)c(C(=O)O)n1)CC2 [Example 28, 6-[8-(1,3-benzothiazol-2-ylcarbamoyl)-3,4-dihydroisoquinolin-2(1H)-yl]-3-[1-(naphthalen-2-ylmethyl)-1H-pyrazol-4-yl]pyridine-2-carboxylic acid] |  | 33 | > 1000
Cc1noc(-c2cccc(Cn3cc(-c4ccc(N5CCc6cccc(C(=O)Nc7nc8ccccc8s7)c6C5)nc4C(=O)O)cn3)c2)n1 [Example 29, 6-[8-(1,3-benzothiazol-2-ylcarbamoyl)-3,4-dihydroisoquinolin-2(1H)-yl]-3-{1-[3-(3-methyl-1,2,4-oxadiazol-5-yl)benzyl]-1H-pyrazol-4-yl}pyridine-2-carboxylic acid] |  | 18 | > 1000
Cc1c(-c2ccc(N3CCc4cccc(C(=O)Nc5nc6ccccc6s5)c4C3)nc2C(=O)O)c(CO)nn1Cc1ccccc1 [Example 30, 6-[8-(1,3-benzothiazol-2-ylcarbamoyl)-3,4-dihydroisoquinolin-2(1H)-yl]-3-[1-benzyl-3-(hydroxymethyl)-5-methyl-1H-pyrazol-4-yl]pyridine-2-carboxylic acid] |  | 2 | 298
O=C(Nc1nc2ccccc2s1)c1cccc2c1CN(c1ccc(-c3cnn(Cc4ccccc4OCc4ccccc4)c3)c(C(=O)O)n1)CC2 [Example 31, 6-[8-(1,3-benzothiazol-2-ylcarbamoyl)-3,4-dihydroisoquinolin-2(1H)-yl]-3-{1-[2-(benzyloxy)benzyl]-1H-pyrazol-4-yl}pyridine-2-carboxylic acid] |  | 18 | > 1000
CCOC(=O)c1nn(Cc2ccccc2)c(C)c1-c1ccc(N2CCc3cccc(C(=O)Nc4nc5ccccc5s4)c3C2)nc1C(=O)O [Example 33, 6-[8-(1,3-benzothiazol-2-ylcarbamoyl)-3,4-dihydroisoquinolin-2(1H)-yl]-3-[1-benzyl-3-(ethoxycarbonyl)-5-methyl-1H-pyrazol-4-yl]pyridine-2-carboxylic acid] |  | 169 | > 1000
CN(C)c1cccc(Cn2cc(-c3ccc(N4CCc5cccc(C(=O)Nc6nc7ccccc7s6)c5C4)nc3C(=O)O)cn2)c1 [Example 34, 6-[8-(1,3-benzothiazol-2-ylcarbamoyl)-3,4-dihydroisoquinolin-2(1H)-yl]-3-{1-[3-(dimethylamino)benzyl]-1H-pyrazol-4-yl}pyridine-2-carboxylic acid] |  | 23 | 907
O=C(Nc1nc2ccccc2s1)c1cccc2c1CN(c1ccc(-c3cnn(Cc4ccccc4O)c3)c(C(=O)O)n1)CC2 [Example 36, 6-[8-(1,3-benzothiazol-2-ylcarbamoyl)-3,4-dihydroisoquinolin-2(1H)-yl]-3-[1-(2-hydroxybenzyl)-1H-pyrazol-4-yl]pyridine-2-carboxylic acid] |  | 8 | > 1000
O=C(Nc1nc2ccccc2s1)c1cccc2c1CN(c1ccc(-c3cnn(C4CCc5ccccc54)c3)c(C(=O)O)n1)CC2 (stereo not drawn) [Example 37, 6-[8-(1,3-benzothiazol-2-ylcarbamoyl)-3,4-dihydroisoquinolin-2(1H)-yl]-3-[1-(2,3-dihydro-1H-inden-1-yl)-1H-pyrazol-4-yl]pyridine-2-carboxylic acid] |  | 17 | 347
CN(c1nccc(-c2ccc(N3CCc4cccc(C(=O)Nc5nc6ccccc6s5)c4C3)nc2C(=O)O)c1C#N)C1CCCCC1 [Example 164, 6-[8-(1,3-benzothiazol-2-ylcarbamoyl)-3,4-dihydroisoquinolin-2(1H)-yl]-3'-cyano-2'-[cyclohexyl(methyl)amino]-3,4'-bipyridine-2-carboxylic acid] |  |  | 308
CN(c1cccc(-c2ccc(N3CCc4cccc(C(=O)Nc5nc6ccccc6s5)c4C3)nc2C(=O)O)c1C#N)S(=O)(=O)C1CCCCC1 [Example 181, 6-[8-(1,3-benzothiazol-2-ylcarbamoyl)-3,4-dihydroisoquinolin-2(1H)-yl]-3-{2-cyano-3-[(cyclohexylsulfonyl)(methyl)amino]phenyl}pyridine-2-carboxylic acid] |  |  | 241

— EP2768830B1, “APOPTOSIS-INDUCING AGENTS FOR THE TREATMENT OF CANCER AND IMMUNE AND AUTOIMMUNE DISEASES” (AbbVie Inc., priority 2011, dated 2013)
